The results in this text go back to US20140047570A1, “ANIMAL MODEL OF HUMAN CANCER AND METHODS OF USE” (H. LEE MOFFITT CANCER CENTER AND RESEARCH INSTITUTE, INC., priority 2011, published 2014).

For the test, the system named is liver tumor of human pancreatic cancer. Kind of test: Diffusion MRI analysis of tumor response to drug treatment in vivo (liver xenograft). Conditions: human pancreatic cancer tumor implanted in mouse liver; intraperitoneally 1 mg/kg/d; before vs 24 hours after initiation of treatment; FIG. 4C. From the text:
FIGS. 4A-D show MRI analysis to assess tumor response to drug treatment in vivo. To evaluate tumor response to treatment in vivo in addition to US imaging technologies such as MRI that utilizes anatomical MRI, diffusion MRI, spectroscopy and Dynamic Contrast Enhanced (DCE) MRI can be used. Of these, diffusion, spectroscopy and DCE show great promise in determining early response to drug treatment, even before changes in tumor volume are observed. Anatomical and diffusion MRI techniques were used on the same liver tumor of human pancreatic cancer before (FIG. 4A) and 24 hours after (FIG. 4B) the initiation of gemcitabine (intraperitoneally 1 mg/kg/d) treatment. […] Laparoscopy or laparotomy can be used to assess tumor growth and to harvest tumor cells in liver (FIG. 4D).
For orientation: A xenograft is tissue or cells of one species grown in another, often human tumour cells in immunodeficient mice.

Regarding `Nc1ccn([C@@H]2O[C@H](CO)[C@@H](O)C2(F)F)c(=O)n1` [gemcitabine], the “tumor water diffusion by diffusion MRI (early response to drug treatment)” value is reported as “right shift in tumor water diffusion”.
